{"source": "patent US20060281789A1", "about": "“Protein kinase inhibitors” (KYOWA HAKKO KOGYO CO., LTD, priority 2003, published 2006)", "key": {"[1]": {"tested_on": "MV-4-11", "experiment": "Cytostatic activity on human acute myeloid leukemia cell line MV-4-11 (WST-1)", "type": "cell-based", "settings": "MV4-11, 3.16 μmol/L, 72 hours, read-out: MV-4-11 (%) cytostatic rate", "description": "(§1) The cytostatic rates of a test compound on human acute myeloid leukemia cell lines MV-4-11 and ML-1, and human chronic myeloid leukemia cell line K562 were determined in the following manner.\n(§2) Each cell was cultured using Roswell Park Memorial Institute's Medium (RPMI) 1640 (Gibco, Catalog No. 11875-093) containing 10% fetal bovine serum (Gibco, Catalogue No. 10437-028) and penicillin/streptomycin (1:1) (Gibco, Catalogue No. 15140-122). Each 80 μL of the MV-4-11 cell having a concentration of 7.5×10^4 cells/mL (or the ML-1 cell or K562 cell having a concentration of 2.5×10^4 cells/mL) was inoculated to wells of a TC MICROWELL 96U plate (Nalge Nunc International, Catalogue No. 163320) and was cultured in a 5% carbon dioxide gas incubator at 37° C. for 4 hours. As a blank, only RPMI medium (80 μL) was added to a well. Each 20 μL of a solution of the test compound in dimethyl sulfoxide (DMSO) which was prepared to make the final concentration to 3.16 μmol/L or 10 μmol/L, was added to the MV-4-11 cell, ML-1 cell and K562 cell, respectively. Each 20 μL of DMSO was added to the control well and the blank well to a final concentration of 0.1%. After adding the test compound, the cells were incubated in a 5% carbon dioxide gas incubator at 37° C. for 72 hours. After adding 20 μL of WST-1 reagent {4-[3-(4-iodophenyl)-2-(4-nitrophenyl)-2H-5-tetrazolio]-1,3-benzene disulfonate sodium salt) (Roche Diagnostics K.K., Catalogue No. 1644807) diluted to 50% with RPMI medium, the cells were further incubated at 37° C. for 2 hours. Then, the absorbances at 450 nm (reference wavelength: 690 nm) were determined with a microplate spectrophotometer SPECTRA max 340PC (Molecular Devices Corporation). The relative growth (%) of a well to which the test compound had been added was determined while setting the absorbance of a well to which not the test compound but DMSO alone had been added (control) at 100% and that of a well containing RPMI medium alone at 0%. The cytostatic rate (%) of the test compound was determined by subtracting the calculated relative growth from 100."}, "[2]": {"tested_on": "ML-1", "experiment": "Cytostatic activity on human acute myeloid leukemia cell line ML-1 (WST-1)", "type": "cell-based", "settings": "ML1, 3.16 μmol/L, 72 hours, read-out: ML-1 (%) cytostatic rate", "description": "as §1, §2"}, "[3]": {"tested_on": "K562", "experiment": "Cytostatic activity on human chronic myeloid leukemia cell line K562 (WST-1)", "type": "cell-based", "settings": "10 μmol/L, 72 hours, read-out: K562 (%) cytostatic rate", "description": "as §1, §2"}, "[4]": {"tested_on": "Colo205", "experiment": "Cytostatic activity on human colon cancer cell line Colo205 (WST-1)", "type": "cell-based", "settings": "10 μmol/L, 72 hours", "description": "The cytostatic rate of a test compound on the human colon cancer cell line Colo205 was determined in the following manner.\nThe cell was cultured using Roswell Park Memorial Institute's-Medium (RPMI) 1640 (Gibco, Catalog No. 11875-093) containing 10% fetal bovine serum (Gibco, Catalog-No. 10437-028) and penicillin/streptomycin (1:1) (Gibco, Catalog No. 15140-122). Each 80 μL of the Colo205 having a concentration of 1.25×10^4 cells/mL was inoculated to wells of a TC MICROWELL 96F plate (Nalge Nunc International, Catalog No. 167008) and was cultured in a 5% carbon dioxide gas incubator at 37° C. for 4 hours. As a blank, only RPMI (80 μL) was added to a well. Each 20 μL of a solution of the test compound in DMSO which was prepared to make the final concentration to 10 μmol/L, was added to the Colo205 cell. Each 20 μL of DMSO was added to the control well and the blank well to a final concentration of 0.1%. After adding the test compound, the cell was incubated in a 5% carbon dioxide gas incubator at 37° C. for 72 hours. The cytostatic rate (%) was then determined in the same manner as the method or the leukemia cell lines described above."}, "[5]": {"molecular_target": "T1, human Flt-3 (Homo sapiens, UniProt P36888)", "T1 construct": "fused to the N-terminus of the intracellular domain (583-953 amino acids) thereof; made in house; host or cells: insect cells (baculovirus)", "T1 sequence (P36888 583-953)": "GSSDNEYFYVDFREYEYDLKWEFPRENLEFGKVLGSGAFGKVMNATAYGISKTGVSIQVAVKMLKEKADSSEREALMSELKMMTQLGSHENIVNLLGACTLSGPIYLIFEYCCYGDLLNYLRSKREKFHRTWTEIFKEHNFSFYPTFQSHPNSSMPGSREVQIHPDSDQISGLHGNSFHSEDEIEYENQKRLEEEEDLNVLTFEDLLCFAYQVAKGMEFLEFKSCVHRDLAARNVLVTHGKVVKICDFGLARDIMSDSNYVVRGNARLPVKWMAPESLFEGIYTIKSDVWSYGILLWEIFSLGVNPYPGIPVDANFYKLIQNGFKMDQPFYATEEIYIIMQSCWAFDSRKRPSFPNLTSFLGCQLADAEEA", "experiment": "Inhibitory activity on Flt-3 (GST-fused kinase, time-resolved fluoroimmunoassay)", "type": "biochemical", "settings": "tested compound 10 μmol/L, ATP 10 μmol/L, sixty minutes", "description": "Flt-3 inhibitory activities were determined in the following manner.\nFlt-3 was prepared by allowing baculovirus to infect insect cells, which baculovirus expresses a protein comprising human Flt-3 with […]. […] Separately was prepared a solution containing, at final concentrations, GST-fused Flt-3 (100 μg/L), Tris-Cl (pH 7.5) (20 mmol/L), β-glycerophosphate (5 mmol/L), dithiothreitol (DTT) (1 mmol/L), Na3VO4 (0.1 mmol/L), MgCl2 (10 mmol/L), MnCl2 (10 mmol/L), ATP (10 μmol/L), bovine serum albumin (BSA) (0.1%), DMSO (0.1%), and a tested compound (10 μmol/L). The solution (each 60 μL) was placed into the wells of the plate for the determination of kinase reaction, followed by enzymatic reaction at room temperature for sixty minutes. After reacting, the reaction was stopped by the addition of 50 μL of a 25 mmol/L aqueous solution of ethylenediaminetetraacetic acid. […] The relative activity (%) of a well in which the enzyme and tested compound were added was determined by calculation with the value in a well to which the tested compound was not added being 100% and the value in a well to which the enzyme and the tested compound were not added being 0%. The Flt-3 inhibitory activity (%) of the tested compound was determined by subtracting the relative activity (%) from 100."}}, "note": "Where a name gives a salt, the structure may show the parent alone.", "data": [{"smiles": "COc1cc(/C=C/c2n[nH]c3ccccc23)ccc1OCC(=O)N1CCOCC1", "note": "[Compound 40, (E)-N-{4-[2-(1H-indazol-3-yl)vinyl]-2-methoxyphenoxy}acetylmorpholine]", "values": [{"measurement": "inhibition at 3.16 µM", "setting": "[1]", "result": 95, "unit": "%"}, {"measurement": "inhibition at 3.16 µM", "setting": "[2]", "result": 95, "unit": "%"}, {"measurement": "inhibition at 10 µM", "setting": "[3]", "result": 60, "unit": "%"}, {"measurement": "Colo205(%) cytostatic rate", "setting": "[4]", "result": 93, "unit": "%"}, {"measurement": "inhibition at 10 µM", "setting": "[5]", "result": 93.8, "unit": "%"}]}, {"smiles": "C(=C\\c1n[nH]c2ccccc12)/c1ccc(OCCCN2CCCCC2)cc1", "note": "[Compound 9, (E)-3-{2-[4-(3-piperidinopropoxy)phenyl]vinyl}-1H-indazole hydrochloride]", "values": [{"measurement": "inhibition at 3.16 µM", "setting": "[1]", "result": 97, "unit": "%"}, {"measurement": "inhibition at 3.16 µM", "setting": "[2]", "result": 92, "unit": "%"}, {"measurement": "inhibition at 10 µM", "setting": "[3]", "result": 97, "unit": "%"}]}, {"smiles": "CC(=O)N1CCN(c2ccc(/C=C/c3n[nH]c4ccccc34)cc2N)CC1", "note": "[Compound 58, (E)-3-{2-[4-(4-acetylpiperazin-1-yl)-3-aminophenyl]vinyl}-1H-indazole]", "values": [{"measurement": "inhibition at 3.16 µM", "setting": "[1]", "result": 97, "unit": "%"}, {"measurement": "inhibition at 3.16 µM", "setting": "[2]", "result": 90, "unit": "%"}, {"measurement": "inhibition at 10 µM", "setting": "[3]", "result": 61, "unit": "%"}, {"measurement": "Colo205(%) cytostatic rate", "setting": "[4]", "result": 91, "unit": "%"}]}, {"smiles": "CC(=O)N1CCN(c2ccc(/C=C/c3n[nH]c4ccccc34)cc2)CC1", "note": "[Compound 54, (E)-3-(2-[4-(4-acetylpiperazin-1-yl)phenyl]vinyl}-1H-indazole]", "values": [{"measurement": "inhibition at 3.16 µM", "setting": "[1]", "result": 98, "unit": "%"}, {"measurement": "inhibition at 3.16 µM", "setting": "[2]", "result": 89, "unit": "%"}, {"measurement": "inhibition at 10 µM", "setting": "[3]", "result": 59, "unit": "%"}, {"measurement": "Colo205(%) cytostatic rate", "setting": "[4]", "result": 78, "unit": "%"}, {"measurement": "inhibition at 10 µM", "setting": "[5]", "result": 94, "unit": "%"}]}, {"smiles": "Nc1cc(/C=C/c2n[nH]c3ccccc23)ccc1N1CCNCC1", "note": "[Compound 59, (E)-3-{2-[3-amino-4-(piperazin-1-yl)phenyl]vinyl}-1H-indazole]", "values": [{"measurement": "inhibition at 3.16 µM", "setting": "[1]", "result": 98, "unit": "%"}, {"measurement": "inhibition at 3.16 µM", "setting": "[2]", "result": 86, "unit": "%"}, {"measurement": "inhibition at 10 µM", "setting": "[3]", "result": 84, "unit": "%"}, {"measurement": "Colo205(%) cytostatic rate", "setting": "[4]", "result": 89, "unit": "%"}]}, {"smiles": "COc1ccc(/C=C/c2n[nH]c3ccccc23)cn1", "note": "[Compound 22, (E)-3-[2-(6-methoxypyridin-3-yl)vinyl]-1H-indazole]", "values": [{"measurement": "inhibition at 3.16 µM", "setting": "[1]", "result": 82, "unit": "%"}, {"measurement": "inhibition at 3.16 µM", "setting": "[2]", "result": 9.2, "unit": "%"}, {"measurement": "inhibition at 10 µM", "setting": "[3]", "result": 63, "unit": "%"}]}, {"smiles": "C(=C\\c1n[nH]c2ccccc12)/c1ccc(OCCN2CCOCC2)cc1", "note": "[Compound 5, (E)-3-{2-[4-(2-morpholinoethoxy)phenyl]vinyl}-1H-indazole hydrochloride]", "values": [{"measurement": "inhibition at 3.16 µM", "setting": "[1]", "result": 91, "unit": "%"}, {"measurement": "inhibition at 3.16 µM", "setting": "[2]", "result": 16, "unit": "%"}, {"measurement": "inhibition at 10 µM", "setting": "[3]", "result": 81, "unit": "%"}, {"measurement": "Colo205(%) cytostatic rate", "setting": "[4]", "result": 90, "unit": "%"}, {"measurement": "inhibition at 10 µM", "setting": "[5]", "result": 93.3, "unit": "%"}]}, {"smiles": "N#Cc1cc(/C=C/c2n[nH]c3ccccc23)ccc1OCCN1CCOCC1", "note": "[Compound 47, (E)-3-{2-[3-cyano-4-(2-morpholinoethoxy)phenyl]vinyl}-1H-indazole]", "values": [{"measurement": "inhibition at 3.16 µM", "setting": "[1]", "result": 98, "unit": "%"}, {"measurement": "inhibition at 3.16 µM", "setting": "[2]", "result": 89, "unit": "%"}, {"measurement": "inhibition at 10 µM", "setting": "[3]", "result": 75, "unit": "%"}, {"measurement": "Colo205(%) cytostatic rate", "setting": "[4]", "result": 68, "unit": "%"}, {"measurement": "inhibition at 10 µM", "setting": "[5]", "result": 94.5, "unit": "%"}]}, {"smiles": "CN(C)CCCOc1ccc(/C=C/c2n[nH]c3ccccc23)cc1", "note": "[Compound 10, (E)-3-{2-[4-(3-dimethylaminopropoxy)phenyl]vinyl}-1H-indazole hydrochloride]", "values": [{"measurement": "inhibition at 3.16 µM", "setting": "[1]", "result": 97, "unit": "%"}, {"measurement": "inhibition at 3.16 µM", "setting": "[2]", "result": 92, "unit": "%"}, {"measurement": "inhibition at 10 µM", "setting": "[3]", "result": 95, "unit": "%"}]}, {"smiles": "CCN(CC)CCOc1ccc(/C=C/c2n[nH]c3ccccc23)cc1", "note": "[Compound 6, (E)-3-{2-[4-(2-diethylaminoethoxy)phenyl]vinyl}-1H-indazole hydrochloride]", "values": [{"measurement": "inhibition at 3.16 µM", "setting": "[1]", "result": 97, "unit": "%"}, {"measurement": "inhibition at 3.16 µM", "setting": "[2]", "result": 89, "unit": "%"}, {"measurement": "inhibition at 10 µM", "setting": "[3]", "result": 98, "unit": "%"}]}, {"smiles": "C(=C\\c1n[nH]c2ccccc12)/c1ccc(N2CCNCC2)cc1.Cl", "note": "[Compound 53, (E)-3-{2-[4-(piperazin-1-yl)phenyl]vinyl}-1H-indazole hydrochloride]", "values": [{"measurement": "inhibition at 3.16 µM", "setting": "[1]", "result": 97, "unit": "%"}, {"measurement": "inhibition at 3.16 µM", "setting": "[2]", "result": 80, "unit": "%"}, {"measurement": "inhibition at 10 µM", "setting": "[3]", "result": 87, "unit": "%"}, {"measurement": "Colo205(%) cytostatic rate", "setting": "[4]", "result": 90, "unit": "%"}, {"measurement": "inhibition at 10 µM", "setting": "[5]", "result": 95.2, "unit": "%"}]}]}
